The values below come from patent publication US20080220497A1, “Modulation of protein functionalities” (priority 2003, published 2008).

Assay [1] has as its target T1, unphosphorylated p38-alpha kinase (Homo sapiens, UniProt Q16539, DEL261-261).
T1 construct: 48 (6×His-TEV tag, full length); 6×His-TEV tag (N); purchased Decode Genetics, Inc; host or cells: E. coli
The assay is described as follows: Fluorescence affinity assay, unphosphorylated p38-alpha kinase. It counts as binding. The following applies: for Ratio IC50s: doubly phosphorylated vs unphosphorylated p38-alpha, >1.0 = preference for unphosphorylated form; for IC50: ~24 nM enzyme, 1.0 uM SKF-86002, read-out: FP IC50 U-p38-alpha. An excerpt:
(§1) This fluorescence affinity assay is utilized in an affinity-based screen to identify small molecules which bind into switch control pockets of protein kinases. Binding of small molecule switch inhibitors displaces the switch control ligand phenylalanine of the DFG motif into an orientation which sterically blocks the ATP pocket. Such inhibitor-induced blockade of the ATP pocket is registered as an inhibition of binding of the fluoroprobe into the ATP pocket.
(§2) • 1. p38-alpha kinase • a. […] Polarstar Optima plate reader (BMG)
• 1. […] This dilution can be done automatically on a Tecan (or similar) robotic workstation or performed manually. • 3. Mix Solution A with the diluted compound solutions following Step 3 of Table 22. This step can be performed automatically on a Tecan (or similar) robotic workstation or performed manually. • 4. Incubate at 30° C. or room temp for 2 h, depending on protein stability. • 5. Read at emission wavelength 420 nm upon excitation at 340 nm.
The reaction was initiated by addition of the enzyme. […] By comparison of RFU (relative fluorescence units) values with that of a control (in the absence of small molecule modulators), the percentage of inhibition at each concentration of the small molecules was calculated. IC50 values for the small molecule modulators were calculated from the % inhibition values obtained at a range of concentrations of the small molecule modulators using Prism (available from GraphPad, Inc.). When time-dependent inhibition was assessed, the plate was read at multiple reaction times such as 0.5, 1, 2, 3, 4 and 6 hours. The IC50 values were calculated at each time point. An inhibition was assigned as time-dependent if the IC50 values decrease with the reaction time (more than two-fold in four hours).
(§3) A ratio greater than 1.0 indicates a preference for inhibiting the unphosphorylated form of p38-alpha kinase relative to the doubly phosphorylated form. A ratio less than 1.0 indicates a preference for inhibiting the doubly phosphorylated form of p38-alpha kinase relative to the unphosphorylated form.

Assay [2] deals with T2, doubly phosphorylated p38-alpha kinase (Homo sapiens, UniProt Q16539).
T2 construct: 6xHis ([…], seen only in the listing) (C); purchased Roche Applied Diagnostics
T2 sequence (Q16539 with tags, fused parts or gaps): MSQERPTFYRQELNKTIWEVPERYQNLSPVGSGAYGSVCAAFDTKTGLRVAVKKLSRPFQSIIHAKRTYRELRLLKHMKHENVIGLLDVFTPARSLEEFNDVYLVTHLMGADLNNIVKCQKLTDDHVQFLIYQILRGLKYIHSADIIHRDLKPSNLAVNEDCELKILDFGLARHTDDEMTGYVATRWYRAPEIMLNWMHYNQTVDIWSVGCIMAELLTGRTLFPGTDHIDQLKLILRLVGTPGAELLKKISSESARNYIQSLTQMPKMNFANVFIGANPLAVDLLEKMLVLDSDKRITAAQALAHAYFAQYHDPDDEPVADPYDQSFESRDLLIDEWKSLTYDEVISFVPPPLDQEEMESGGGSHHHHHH
Briefly: Fluorescence affinity assay, doubly phosphorylated p38-alpha kinase. In kind it is binding. The following applies: ~24 nM enzyme; 1.0 uM SKF-86002; read-out: FP IC50 P-p38-alpha.
Text: as §1, §2
• 1. […] This dilution can be done automatically on a Tecan (or similar) robotic workstation or performed manually. • 3. Mix Solution A with the diluted compound solutions following Step 3 of Table 22. This step can be performed automatically on a Tecan (or similar) robotic workstation or performed manually. • 4. Incubate at 30° C. or room temp for 2 h, depending on protein stability. • 5. Read at emission wavelength 420 nm upon excitation at 340 nm. […]
as §3

Assay [3] deals with T1, unphosphorylated p38-alpha kinase. Briefly: Thermal denaturation of unphosphorylated p38-alpha kinase. Particulars: for ΔTm (° C.) relative to unphosphorylated apo p38: […] p38-alpha kinase, 15 μM small molecule. In kind it is binding. From the text: (§4) Denaturation was monitored by measuring the absolute absorbance of the solutions at an appropriate wavelength (typically 230 nm and 240 nm) as a function of temperature. As the protein became denatured, additional UV absorbing functional groups became exposed causing an increase in absorbance at the melting temperature. […] The thermal data were collected using Agilent spectrophotometers and ChemStation UV/Vis Thermal Denaturation software.
The final protein and buffer solution was mixed gently using a pipetter to minimize denaturing due to over aggressive mixing. The final solution was transferred to a 50 μL cuvette for analysis.
(§5) The final solution was transferred to a 50 μL cuvette for analysis.
(§6) A first derivative calculation with data smoothing was applied to the resulting data to report the point of inflection as the melting temperature.

For assay [4], the target named is T2, doubly phosphorylated p38-alpha kinase. The assay is described as follows: Thermal denaturation of doubly phosphorylated p38-alpha kinase. It counts as binding. The following applies: for ΔTm (° C.) relative to doubly phosphorylated p38: 0.5 μM p38-alpha kinase, 20 μM small molecule. As to the method: as §4
The final concentration was 0.5 μM p38-alpha kinase and 20 μM small molecule. The final protein and buffer solution was mixed gently using a pipetter to minimize denaturing due to over aggressive mixing. The final solution was transferred to a 50 μL cuvette for analysis.
The protein and buffer solution was mixed gently using a pipetter to minimize denaturing due to over aggressive mixing. The final solution was transferred to a 50 μL cuvette for analysis.
as §6

The next assay has as its target T3, V599E Braf kinase (Homo sapiens, UniProt P15056, V600E).
T3 construct: 6×His-tag (N); made in house; host or cells: Sf9 insect cells (baculovirus)
The assay is described as follows: Thermal denaturation of oncogenic V599E Braf kinase. In kind it is binding. The following applies: 1.4 μM V599E Braf kinase, 20 μM small molecule; read-out: ΔTm (° C.) relative to unphosphorylated B-Raf(V599E). Here is the method:
as §4, §5, §5, §6

The subject of a further assay is Abl kinase. Briefly: Thermal denaturation of Abl kinase. It counts as binding, human. Particulars: 1 μM Abl kinase, 20 μM small molecule. Here is the method: as §4
5 μL of 40 μM Abl kinase was mixed with 195 μL of the small molecule/buffer solution. The final concentration was 1 μM Abl kinase and 20 μM small molecule. The final protein and buffer solution was mixed gently using a pipetter to minimize denaturing due to over aggressive mixing. The final solution was transferred to a 50 μL cuvette for analysis.
Test solutions containing only the Abl kinase were prepared as follows: 5 μL of 40 μM Abl kinase was mixed with 195 μL Buffer to give a concentration of 1 μM Abl kinase in Buffer. The protein and buffer solution was mixed gently using a pipetter to minimize denaturing due to over aggressive mixing. The final solution was transferred to a 50 μL cuvette for analysis.
as §6

T1 sequence (Q16539 with tags, fused parts or gaps DEL261-261): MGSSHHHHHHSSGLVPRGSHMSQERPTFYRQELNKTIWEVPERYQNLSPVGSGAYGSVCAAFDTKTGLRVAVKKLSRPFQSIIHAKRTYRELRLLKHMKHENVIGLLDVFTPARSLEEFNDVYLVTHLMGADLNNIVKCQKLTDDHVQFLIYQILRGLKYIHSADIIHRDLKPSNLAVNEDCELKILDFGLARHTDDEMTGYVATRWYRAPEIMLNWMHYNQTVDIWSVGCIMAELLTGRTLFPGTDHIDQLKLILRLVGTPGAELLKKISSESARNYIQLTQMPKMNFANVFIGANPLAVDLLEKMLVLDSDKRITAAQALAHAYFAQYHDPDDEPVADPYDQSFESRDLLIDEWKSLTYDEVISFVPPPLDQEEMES
T3 sequence (P15056 with tags, fused parts or gaps V600E): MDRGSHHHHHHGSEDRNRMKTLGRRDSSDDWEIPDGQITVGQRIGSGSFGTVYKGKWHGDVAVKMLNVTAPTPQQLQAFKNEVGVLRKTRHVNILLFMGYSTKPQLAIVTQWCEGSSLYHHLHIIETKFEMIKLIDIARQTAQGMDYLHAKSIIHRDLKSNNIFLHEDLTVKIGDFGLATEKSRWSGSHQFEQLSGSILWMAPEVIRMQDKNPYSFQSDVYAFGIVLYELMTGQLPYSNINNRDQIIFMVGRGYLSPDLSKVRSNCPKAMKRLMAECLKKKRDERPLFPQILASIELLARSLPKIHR

What is called IC50 is the concentration needed to halve the response being measured. `CC(C)(C)c1cc(NC(=O)Nc2ccc(Cl)cc2)n(-c2ccc(CO)cc2)n1` [Example 61]: in assay [1], the “Ratio IC50s” value is 0.8 and the concentration for half-maximal inhibition (IC50) worked out at 24 nM. Also, in assay [2], the IC50 turned out to be 19 nM. In addition, in assay [3], the “ΔTm (° C.) relative to unphosphorylated apo p38” value amounted to 8.5 °C. For the same molecule, the “ΔTm (° C.) relative to doubly phosphorylated p38” value in assay [4] amounted to 5.9 °C.
As for `O=C(Nc1cccc(Cl)c1Cl)Nc1cc(-c2ccccc2)nn1-c1cccc(CO)c1` [Example 63], the IC50 was 28 nM in assay [1] and 85 nM in assay [2]. In assay [3], the “ΔTm (° C.) relative to unphosphorylated apo p38” value came out at 9.4 °C. In addition, the “ΔTm (° C.) relative to doubly phosphorylated p38” value in assay [4] came to 5.0 °C.
Consider `CC(C)(C)c1cc(NC(=O)Nc2cccc(Cl)c2Cl)n(-c2cccc(CC(N)=O)c2)n1` [Example 69], for which the “Thermal denaturation assay ΔTm” value in assay [3] (unphosphorylated p38-alpha kinase) amounted to 13.10 °; in assay [4] (phosphorylated p38-alpha kinase), 9.1 °.
With `CC1(O)CCN(C(=O)Cc2ccc(-n3nc(C(C)(C)C)cc3NC(=O)Nc3cccc(Cl)c3Cl)cc2)CC1` [Example 70], in assay [1], the “Ratio IC50s” value is 2.3 and the IC50 turned out to be 26 nM. Further, in assay [2], the IC50 is 26 nM. The “ΔTm (° C.) relative to unphosphorylated apo p38” value in assay [3] worked out at 12.6 °C. Also, the “ΔTm (° C.) relative to doubly phosphorylated p38” value in assay [4] came out at 8.7 °C.
`CC(C)(C)c1cc(NC(=O)Nc2cccc3ccccc23)n(-c2cccc(CO)c2)n1` [Example 71]: the “Ratio IC50s” value in assay [1] came out at 1.1. Further, the 50% inhibitory concentration (IC50) was 17 nM in assay [1] and 19 nM in assay [2]. The “ΔTm (° C.) relative to unphosphorylated apo p38” value in assay [3] is 10.9 °C. In assay [4], the “ΔTm (° C.) relative to doubly phosphorylated p38” value worked out at 9.6 °C.
As to `CC(C)(C)c1cc(NC(=O)Nc2cccc3ccccc23)n(-c2ccc(C(O)C(F)(F)F)cc2)n1` (centres unmarked) [Example 73], the “ΔTm (° C.) relative to unphosphorylated apo p38” value in assay [3] is 8.9 °C. The “ΔTm (° C.) relative to doubly phosphorylated p38” value in assay [4] amounted to 5.9 °C.
Turning to `CC(C)(C)c1cc(NC(=O)Nc2cccc3ccccc23)n(-c2cccc(C(C)(C)O)c2)n1` [Example 75], in assay [1], the “Ratio IC50s” value is listed as 0.7 and the half-inhibitory concentration (IC50) was determined as 165 nM. Further, the half-inhibitory concentration (IC50) in assay [2] turned out to be 119 nM. Also, the “ΔTm (° C.) relative to unphosphorylated apo p38” value in assay [3] stood at 8.2 °C. Moreover, the “ΔTm (° C.) relative to doubly phosphorylated p38” value in assay [4] came out at 5.6 °C.
Turning to `CC(C)(C)c1cc(NC(=O)Nc2cccc(Cl)c2Cl)n(-c2ccc(CC(N)=O)cc2)n1` [Example 76], the IC50 in assay [2] was determined as 26 nM. Besides, in assay [3], the “ΔTm (° C.) relative to unphosphorylated apo p38” value stood at 13.1 °C. In assay [4], the “ΔTm (° C.) relative to doubly phosphorylated p38” value was 9.4 °C.
For the molecule `NC(=O)Cc1cccc(-n2nc(-c3ccccc3)cc2NC(=O)Nc2cccc(Cl)c2Cl)c1` [Example 77], in assay [1], the “Ratio IC50s” value was determined as 1.1 and the half-inhibitory concentration (IC50) was 25 nM. Also, in assay [2], the IC50 came out at 57 nM. Besides, the “ΔTm (° C.) relative to unphosphorylated apo p38” value in assay [3] came to 8.0 °C. In addition, the “ΔTm (° C.) relative to doubly phosphorylated p38” value in assay [4] came to 5.3 °C.
Taken in the same sequence, the figures for `NC(=O)Cc1cccc(-n2nc(-c3cscn3)cc2NC(=O)Nc2cccc(Cl)c2Cl)c1` [Example 78] were 1.5, 233 nM, 195 nM, 6.7 °C and 3.9 °C.
Usually ΔTm stands for the change in melting temperature against a reference sample. `CNC(=O)Cc1cccc(-n2nc(C(C)(C)C)cc2NC(=O)Nc2cccc(Cl)c2Cl)c1` [Example 79]: the thermal shift (ΔTm) at 20 µM at V599E Braf kinase was found to be 12 °C.
The same measure, in the same setting: for `CC(C)(C)c1cc(NC(=O)Nc2cccc(Cl)c2Cl)n(-c2ccc3c(c2)CCC(=O)N3)n1` [Example 81] the value was 17.3 °C; for `CC(C)(C)c1cc(NC(=O)Nc2cccc(Cl)c2Cl)n(-c2ccc3c(c2)CCNC3=O)n1` [Example 82], 13.5 °C; for `CC(C)(C)c1cc(NC(=O)Nc2cccc3ccccc23)n(-c2cccc(C(C)(C)O)c2)n1` [Example 83], 14.9 °C.
In the case of `CC(C)(C)c1cc(NC(=O)Nc2cccc(Cl)c2Cl)n(-c2ccc(CC(N)=O)cc2)n1` [Example 84], the thermal shift (ΔTm) at 20 µM at V599E Braf kinase is 12.5 °C.
Still for that read-out and setting: for `CC(C)(C)c1cc(NC(=O)Nc2ccc(Cl)cc2)n(-c2cccc(CO)c2)n1` [Example 85] the value was 2.9 °C.
`CC(C)(C)c1cc(NC(=O)Nc2cccc(Cl)c2Cl)n(-c2cc(CNC(=O)NS(C)(=O)=O)c3ccccc3c2)n1` [Example 86]: the “ΔTm (° C.) relative to unphosphorylated Abl” value in the assay on Abl kinase was 4.0 °C.
Still for that read-out and setting: for `CC(C)(C)c1cc(NC(=O)Nc2cccc(Cl)c2Cl)n(-c2cc(CO)c3ccccc3c2)n1` [Example 87] the value was 3.6 °C; for `CC(=O)N1CCc2ccc(-n3nc(C(C)(C)C)cc3NC(=O)Nc3cccc(Cl)c3Cl)cc2C1` [Example 88], 1.2 °C.
Same read-out and setting: the value for `CC(C)(C)c1cc(NC(=O)Nc2cccc(Cl)c2Cl)n(-c2ccc3c(c2)C(N)=NCC3)n1` [Example 89] was 1.8 °C; that for `CC(C)(C)c1cc(NC(=O)Nc2cccc(Cl)c2Cl)n(-c2cccc(C(=N)N)c2)n1` [Example 90] was 1.3 °C; that for `COc1ccc(-n2nc(C(C)(C)C)cc2NC(=O)Nc2cccc(Cl)c2Cl)cc1` [Example 91] was 12.5 °C.
For `CC(C)(C)c1cc(NC(=O)Nc2cccc3ccccc23)n(-c2ccc(OCC(=O)O)cc2)n1` [Example 92], the “Ratio IC50s” value in assay [1] is 3.1. The IC50 came to 52 nM in assay [1] and 160 nM in assay [2].
Taken in the same sequence, the figures for `CC(C)(C)c1cc(NC(=O)Nc2cccc(Oc3cccnc3)c2)n(-c2cccc(CC(N)=O)c2)n1` [Example 93, 1-(1-(3-(2-amino-2-oxoethyl)phenyl)-3-tert-butyl-1H-pyrazol-5-yl)-3-(3-(pyridin-3-yloxy)phenyl)urea] were 2.4, 16 nM and 39 nM.
For `Cc1ccc(NC(=O)Nc2cc(C(C)(C)C)nn2-c2ccc3c(c2)CCNC3)cc1Nc1ncccn1` [Example 94, 1-(3-tert-butyl-1-(1,2,3,4-tetrahydroisoquinolin-6-yl)-1H-pyrazol-5-yl)-3-(4-methyl-3-(pyrimidin-2-ylamino)phenyl)urea], in that order: 1.9, 10 nM and 19 nM.
For `CC(C)(C)c1cc(NC(=O)Nc2cccc(Cl)c2Cl)n(-c2ccc(CC(=O)N3CCS(=O)(=O)CC3)cc2)n1` [Example 96], in that order: 3.0, 7 nM and 8 nM.
